Assay results from the supplement of paper PMC10307832.

What was measured:
Assay in all cases: relative viability (nuclei count vs DMSO), 5 days (fraction); higher = more cells survive
EMC-BAC-2 = system: EMC-BAC-2
Summary of the method: (§1)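 Relative viability divides the nuclei count in treated wells by that in vehicle wells. Lung cancer cell lines were seeded in 1536-well plates, dosed by pin tool the next day, and fixed and stained after 5 days in one step with final 0.05% Triton X-100, 1% formaldehyde and 1 ug/ml Hoechst. Dosing was a single drug or a fixed anchor-drug dose plus five library-drug doses (not always all listed) in √10 steps, and values are medians of duplicate plates imaged at 4×.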

EKVX = system: EKVX
Summary of the method: as §1

NCI-H2126 = system: NCI-H2126
Summary of the method: as §1

NCI-H1755 = system: NCI-H1755
Summary of the method: as §1

LCLC-103H = system: LCLC-103H
Summary of the method: as §1

NCI-H1793 = system: NCI-H1793
Summary of the method: as §1

LC-2-ad = system: LC-2-ad
Summary of the method: as §1

NCI-H1651 = system: NCI-H1651
Summary of the method: as §1

NCI-H1648 = system: NCI-H1648
Summary of the method: as §1

NCI-H1395 = system: NCI-H1395
Summary of the method: as §1

RERF-LC-KJ = system: RERF-LC-KJ
Summary of the method: as §1

PC-14 = system: PC-14
Summary of the method: as §1

CAL-12T = system: CAL-12T
Summary of the method: as §1

H3255 = system: H3255
Summary of the method: as §1

ABC-1 = system: ABC-1
Summary of the method: as §1

SW 900 = system: SW 900
Summary of the method: as §1

NCI-H596 = system: NCI-H596
Summary of the method: as §1

NCI-H2087 = system: NCI-H2087
Summary of the method: as §1

C=C1C(=O)O[C@@H](CCCCCCCC)[C@@H]1C(=O)O [C-75] + NC(=O)Nc1cc(-c2cccc(F)c2)sc1C(=O)N[C@H]1CCCNC1 [AZD7762] (partner 0.2 µM) was tested, and the relative viability (EMC-BAC-2; first compound 0.08 µM) was 1.1, the relative viability (EMC-BAC-2; first compound 0.253 µM) was 1.04 and the relative viability (EMC-BAC-2; first compound 0.8 µM) was 1.06. It also gave a relative viability (EMC-BAC-2; first compound 2.53 µM) of 0.887, a relative viability (EMC-BAC-2; first compound 8 µM) of 1.07 and a relative viability (EKVX; first compound 0.08 µM) of 0.683. It also gave a relative viability (EKVX; first compound 0.253 µM) of 0.765, a relative viability (EKVX; first compound 0.8 µM) of 0.498 and a relative viability (EKVX; first compound 8 µM) of 0.51. For the same molecule, the relative viability (NCI-H2126; first compound 0.08 µM) was 0.953, the relative viability (NCI-H2126; first compound 0.253 µM) was 1.13 and the relative viability (NCI-H2126; first compound 0.8 µM) was 0.965. For the same molecule, the relative viability (NCI-H2126; first compound 2.53 µM) was 0.886, the relative viability (NCI-H2126; first compound 8 µM) was 1.01 and the relative viability (NCI-H1755; first compound 0.08 µM) was 0.42. It also gave a relative viability (NCI-H1755; first compound 0.253 µM) of 0.473, a relative viability (NCI-H1755; first compound 0.8 µM) of 0.397 and a relative viability (NCI-H1755; first compound 2.53 µM) of 0.405. It also gave a relative viability (NCI-H1755; first compound 8 µM) of 0.416, a relative viability (LCLC-103H; first compound 0.08 µM) of 0.809 and a relative viability (LCLC-103H; first compound 0.253 µM) of 0.619. The relative viability (LCLC-103H; first compound 0.8 µM) was 0.695, the relative viability (LCLC-103H; first compound 2.53 µM) was 0.654 and the relative viability (LCLC-103H; first compound 8 µM) was 0.814. It also gave a relative viability (NCI-H1793; first compound 0.08 µM) of 0.478, a relative viability (NCI-H1793; first compound 0.253 µM) of 0.645 and a relative viability (NCI-H1793; first compound 2.53 µM) of 0.293. The relative viability (NCI-H1793; first compound 8 µM) was 0.854, the relative viability (LC-2-ad; first compound 0.08 µM) was 0.833 and the relative viability (LC-2-ad; first compound 0.253 µM) was 0.813. It also gave a relative viability (LC-2-ad; first compound 0.8 µM) of 0.819, a relative viability (LC-2-ad; first compound 2.53 µM) of 0.728 and a relative viability (LC-2-ad; first compound 8 µM) of 0.853. The relative viability (NCI-H1651; first compound 0.08 µM) was 0.431, the relative viability (NCI-H1651; first compound 0.253 µM) was 0.511 and the relative viability (NCI-H1651; first compound 0.8 µM) was 0.358. It also gave a relative viability (NCI-H1651; first compound 2.53 µM) of 0.374, a relative viability (NCI-H1651; first compound 8 µM) of 0.509 and a relative viability (NCI-H1648; first compound 0.08 µM) of 0.75. For the same molecule, the relative viability (NCI-H1648; first compound 0.253 µM) was 1.2, the relative viability (NCI-H1648; first compound 0.8 µM) was 0.712 and the relative viability (NCI-H1648; first compound 8 µM) was 0.622. It also gave a relative viability (NCI-H1395; first compound 0.08 µM) of 0.358, a relative viability (NCI-H1395; first compound 0.253 µM) of 0.386 and a relative viability (NCI-H1395; first compound 2.53 µM) of 0.4. For the same molecule, the relative viability (NCI-H1395; first compound 8 µM) was 0.413, the relative viability (RERF-LC-KJ; first compound 0.08 µM) was 0.946 and the relative viability (RERF-LC-KJ; first compound 0.253 µM) was 1.16. It also gave a relative viability (RERF-LC-KJ; first compound 0.8 µM) of 0.824, a relative viability (RERF-LC-KJ; first compound 2.53 µM) of 0.925 and a relative viability (RERF-LC-KJ; first compound 8 µM) of 1.09. It also gave a relative viability (PC-14; first compound 0.08 µM) of 0.358, a relative viability (PC-14; first compound 0.8 µM) of 0.243 and a relative viability (PC-14; first compound 2.53 µM) of 0.328. The relative viability (PC-14; first compound 8 µM) was 0.319, the relative viability (CAL-12T; first compound 0.08 µM) was 0.683 and the relative viability (CAL-12T; first compound 0.253 µM) was 0.713. For the same molecule, the relative viability (CAL-12T; first compound 0.8 µM) was 0.586, the relative viability (CAL-12T; first compound 2.53 µM) was 0.548 and the relative viability (CAL-12T; first compound 8 µM) was 0.64. For the same molecule, the relative viability (H3255; first compound 0.08 µM) was 0.847, the relative viability (H3255; first compound 0.253 µM) was 0.893 and the relative viability (H3255; first compound 0.8 µM) was 0.774. It also gave a relative viability (H3255; first compound 2.53 µM) of 0.885, a relative viability (H3255; first compound 8 µM) of 0.865 and a relative viability (ABC-1; first compound 0.08 µM) of 0.736. The relative viability (ABC-1; first compound 0.253 µM) was 0.461, the relative viability (ABC-1; first compound 0.8 µM) was 0.685 and the relative viability (ABC-1; first compound 2.53 µM) was 0.672. It also gave a relative viability (ABC-1; first compound 8 µM) of 0.775, a relative viability (SW 900; first compound 0.08 µM) of 0.663 and a relative viability (SW 900; first compound 0.253 µM) of 0.69. The relative viability (SW 900; first compound 0.8 µM) was 0.623, the relative viability (SW 900; first compound 2.53 µM) was 0.576 and the relative viability (SW 900; first compound 8 µM) was 0.611. The relative viability (NCI-H596; first compound 0.08 µM) was 1.23, the relative viability (NCI-H596; first compound 0.253 µM) was 1.12 and the relative viability (NCI-H596; first compound 0.8 µM) was 0.998. The relative viability (NCI-H596; first compound 2.53 µM) was 0.975, the relative viability (NCI-H596; first compound 8 µM) was 0.988 and the relative viability (NCI-H2087; first compound 0.08 µM) was 1.59. For the same molecule, the relative viability (NCI-H2087; first compound 0.253 µM) was 1.23, the relative viability (NCI-H2087; first compound 0.8 µM) was 1.07 and the relative viability (NCI-H2087; first compound 2.53 µM) was 1.3. It also gave a relative viability (NCI-H2087; first compound 8 µM) of 1.09.
